In paper PMC9854762, “Antibiofilm and Anti-Quorum-Sensing Activities of Novel Pyrazole and Pyrazolo[1,5-a]pyrimidine Derivatives as Carbonic Anhydrase I and II Inhibitors: Design, Synthesis, Radiosterilization, and Molecular Docking Studies” (Antibiotics, 2023):
Converted amounts (≈) assume the structure as drawn. “And” between values parts separate entries of the source, which are not always exact repeats. Equal entries are not always repeated.

Legend:
A. baumannii DH-243 [1] = assay: Agar well-diffusion assay; format: cell-based; conditions: Acinetobacter baumannii, DH243; A. baumannii DH-243; 50 µL of 10 mM per well; read-out: Diameter of Inhibition Zones (AZOI)
Description: (§1) The synthesized compounds were initially screened for their in vitro antibacterial activity against the different Gram-positive and Gram-negative bacteria, tested using the agar well-diffusion assay. The turbidity of the bacterial suspensions was established to the 0.5 McFarland turbidity standard. The activity was performed on TS agar plates. The bacteria were spread on the surface of the agar plates, and 10 mm wells were screwed into the agar plates. The assay was performed under aseptic conditions. An aliquot of 50 µL of each tested compound (10 mM) was added to the wells, and the plates were incubated overnight at 37 °C. Both Erythromycin and Amikacin antibiotic disks were used as positive control, while DMSO solvent was used as a negative control in this study. The diameters of inhibition zones were measured and recorded in mm. A comparative study of the synthesized compounds was determined. The experiment was performed in triplicates.

E. coli DH-5987 [2] = assay: Agar well-diffusion assay; format: cell-based; conditions: Escherichia coli, DH5987, 50 µL of 10 mM per well, read-out: Diameter of Inhibition Zones (AZOI)
Description: as §1

E. faecalis DH-5478 [3] = assay: Agar well-diffusion assay; format: cell-based; conditions: Enterococcus faecalis, DH5478; E. faecalis DH-5478; 50 µL of 10 mM per well; read-out: Diameter of Inhibition Zones (AZOI)
Description: as §1

S. aureus DH-432 [4] = assay: Agar well-diffusion assay; format: cell-based; conditions: Staphylococcus aureus, DH432; S. aureus DH-432; 50 µL of 10 mM per well; read-out: Diameter of Inhibition Zones (AZOI)
Description: as §1

S. pyogenes DH-3467 [5] = assay: Agar well-diffusion assay; format: cell-based; conditions: Streptococcus pyogenes, DH3467; S. pyogenes DH-3467; 50 µL of 10 mM per well; read-out: Diameter of Inhibition Zones (AZOI)
Description: as §1

P. aeruginosa DH-5698 [6] = assay: Agar well-diffusion assay; format: cell-based, Pseudomonus aeruginosa; conditions: Pseudomonas aeruginosa, DH5698; P. aeruginosa DH-5698; 50 µL of 10 mM per well; read-out: Diameter of Inhibition Zones (AZOI)
Description: as §1

E. faecalis DH-5478 [7] = assay: Broth microdilution MIC/MBC; format: cell-based, Enterococcus faecalis; conditions: for MIC: Enterococcus faecalis, DH5478, 24 h, read-out: MIC (Mean ± SEM); for MBC/MIC: value in brackets
Description: (§2) The broth microdilution method was taken as a basis to detect the MICs of pyrazole compounds against tested clinical isolates, according to the Clinical Laboratory and Standards Institute guidelines. The broth cultures were used to prepare the bacterial inoculums, and the suspensions were adjusted to the standard 0.5 McFarland turbidity. Stock solutions of the synthesized pyrazoles were prepared in pure DMSO and further serially diluted with TS broth in the concentration range from 128 µg/mL to 0.0625 µg/mL. A well containing noninoculated TS broth, free of any antimicrobial agents, was also included to ensure the medium sterility, while Erythromycin and Amikacin served as positive controls. Bacterial growth was determined by adding 20 µL of 0.5% TTC (2,3,5-triphenyltetrazolium chloride) aqueous solution. […] All experiments were repeated three times. The bactericidal effect from each concentration of the pyrazole and pyrazolo[1,5-a]pyrimidine derivatives showing growth inhibition was further studied. For this study, a loopful of 5 µL was taken from each no-visible growth tube and streaked onto plates of TS agar.

S. aureus DH-432 [8] = assay: Broth microdilution MIC/MBC; format: cell-based, Staphylococcus aureus; conditions: for MIC: Staphylococcus aureus, DH432, 24 h, read-out: MIC (Mean ± SEM); for MBC/MIC: value in brackets
Description: as §2

S. pyogenes DH-3467 [9] = assay: Broth microdilution MIC/MBC; format: cell-based, Streptococcus pyogenes; conditions: for MIC: Streptococcus pyogenes, DH3467, 24 h, read-out: MIC (Mean ± SEM); for MBC/MIC: value in brackets
Description: as §2

A. baumannii DH-243 [10] = assay: Broth microdilution MIC/MBC; format: cell-based, Acinetobacter baumannii; conditions: for MIC: Acinetobacter baumannii, DH243, 24 h, read-out: MIC (Mean ± SEM); for MBC/MIC: value in brackets
Description: as §2

E. coli DH-5987 [11] = assay: Broth microdilution MIC/MBC; format: cell-based, Escherichia coli; conditions: for MBC/MIC / MIC / MIC (Mean ± SEM): E. coli DH-5987; for MBC/MIC: value in brackets; for MIC / MBC: Escherichia coli, DH5987; for MIC / MIC (Mean ± SEM): 24 h; for MIC: read-out: MIC (Mean ± SEM); for MBC: E. coli
Description: as §2

P. aeruginosa DH-5698 [12] = assay: Broth microdilution MIC/MBC; format: cell-based, Pseudomonus aeruginosa; conditions: for MIC: Pseudomonas aeruginosa, DH5698, 24 h, read-out: MIC (Mean ± SEM); for MBC/MIC: value in brackets
Description: as §2

P. aeruginosa biofilm = assay: Crystal violet biofilm inhibition assay; format: cell-based; conditions: compounds at their MICs, crystal violet OD570
Description: (§3) The microtiter plate method was used to evaluate the active pyrazoles’ inhibitory activities on the strong biofilm-forming bacterial strains. This method was carried out as described, with some modifications. The antibiofilm effects of tested pyrazoles are presented as a percentage change from untreated bacterial controls. Overnight cultures of micro-organisms in the TSB medium with 10% (wt/vol) glucose were prepared as 10^8 CFU/mL, and then 100 µL was dispensed into each test well. Then, 100 µL of different concentrations of compounds, at their MICs, were dispensed into each well. The negative control contained only TSB, whereas the positive control contained cell cultures without compound addition. The supernatant was decanted and each well gently rinsed three times with 300 µL of sterile distilled water and discarded after incubation at 37 °C for 48 h. The plates were dried with air for 40 min. They were stained with 0.1% (wt/vol) crystal violet at room temperature for 30 min and washed three times with sterile distilled water. Afterward, the crystal violet was solubilized in 95% ethanol, and the absorbance was read in a microplate reader (MicroplatePhotometer and Multiskan FC) at 570 nm. This test was performed in triplicate, and the mean was taken as an average of three readings. The percentage of biofilm inhibition was calculated according to Equation (1):(1) Biofilm eradication %=OD positivecontrol−OD sample /OD positive control×100

S. aureus biofilm = assay: Crystal violet biofilm inhibition assay; format: cell-based; conditions: compounds at their MICs, crystal violet OD570
Description: as §3

hCA-I = target: T1, hCA-I (Homo sapiens, UniProt P00915); assay: Carbonic anhydrase isoenzyme inhibition assay; format: biochemical; conditions: for Ki: Lineweaver–Burk graphs
T1 construct: from tissue; host or cells: human erythrocytes (hemolysate)
Description: The purification of both human cytosolic CA isoforms was carried out as previously described, using a simple one-step procedure of Sepharose-4B-L-tyrosine-sulfanilamide affinity chromatography. […] The carbonic anhydrase isoenzymes’ activities were determined in accordance with the previous study. […] For the designation of the inhibition efficacy of each novel pyrazole and for the pyrazolo[1,5-a]pyrimidine derivatives on both hCA isoenzymes, an activity (%) graph was drawn. The IC50 values were obtained from activity (%) versus compounds plots. The Ki values were calculated using three concentrations for each derivative.

T1 sequence (P00915 whole entry): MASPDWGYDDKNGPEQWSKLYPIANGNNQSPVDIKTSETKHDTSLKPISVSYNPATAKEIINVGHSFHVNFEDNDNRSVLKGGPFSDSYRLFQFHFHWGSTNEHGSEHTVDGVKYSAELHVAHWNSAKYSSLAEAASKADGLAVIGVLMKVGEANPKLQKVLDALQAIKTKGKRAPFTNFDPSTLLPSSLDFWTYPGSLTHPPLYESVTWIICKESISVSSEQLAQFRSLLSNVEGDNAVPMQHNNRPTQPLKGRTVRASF

SMILES	zone of inhibition at 10000 µM (A. baumannii DH-243 [1])	zone of inhibition at 10000 µM (E. coli DH-5987 [2])	zone of inhibition at 10000 µM (E. faecalis DH-5478 [3])	zone of inhibition at 10000 µM (S. aureus DH-432 [4])	zone of inhibition at 10000 µM (S. pyogenes DH-3467 [5])	zone of inhibition at 10000 µM (P. aeruginosa DH-5698 [6])	MIC (E. faecalis DH-5478 [7])	MBC/MIC (E. faecalis DH-5478 [7])	MIC (S. aureus DH-432 [8])	MBC/MIC (S. aureus DH-432 [8])	MIC (S. pyogenes DH-3467 [9])	MBC/MIC (S. pyogenes DH-3467 [9])	MIC (A. baumannii DH-243 [10])	MBC/MIC (A. baumannii DH-243 [10])	MIC (E. coli DH-5987 [11])	MIC (P. aeruginosa DH-5698 [12])	MBC/MIC (P. aeruginosa DH-5698 [12])	Biofilm Eradication % (P. aeruginosa biofilm)	IC50 (hCA-I)	Ki (hCA-I)	other results
CCOC(=O)c1ccc(N=Nc2c(N)nn3c(C)cc(C)nc23)cc1 [Compound 6, ethyl-4-((2-amino-5,7-dimethylpyrazolo[1,5-a]pyrimidin-3-yl)diazenyl)benzoate]	28.8 mm	31 mm	29.5 mm	29.5 mm	30.2 mm	28.8 mm	0.375 ± 0.2 µg/mL (≈ 1.11 µM)	0.5	0.187 ± 0.1 µg/mL (≈ 0.553 µM)	0.5	0.25 ± 0.3 µg/mL (≈ 0.739 µM)	0.5	0.5 ± 0.1 µg/mL (≈ 1.48 µM)	0.5	0.25 ± 0.1 µg/mL (≈ 0.739 µM)	0.375 ± 0.4 µg/mL (≈ 1.11 µM)	0.5	76% and 76 ± 0.52%	169 nM	153 nM	MBC/MIC (E. coli DH-5987 [11]): 0.5; Biofilm Eradication % (S. aureus biofilm): 80% and 80 ± 0.63%
CCOC(=O)c1ccc(N=Nc2c(N)nn3c(N)c(C#N)c(-c4ccc(N(C)C)cc4)nc23)cc1 [Compound 9a, Ethyl-4-((2,7-diamino-6-cyano-5-(4-(dimethylamino)phenyl)pyrazolo[1,5-a]pyrimidin-3-yl)diazenyl)benzoate]	28.4 mm	30.4 mm	28.7 mm	29.1 mm	29.3 mm	28.5 mm	0.5 ± 0.1 µg/mL (≈ 1.06 µM)	0.5	0.25 ± 0.2 µg/mL (≈ 0.532 µM)	0.5	0.25 ± 0.2 µg/mL (≈ 0.532 µM)	0.5	0.375 ± 0.2 µg/mL (≈ 0.799 µM)	0.5	0.125 µg/mL (≈ 0.266 µM)	0.375 ± 0.3 µg/mL (≈ 0.799 µM)	0.5	66% and 66 ± 0.9%	123 nM	102 nM	MIC (Mean ± SEM) (E. coli DH-5987 [11]): 0.125 ± 0.1 µg/mL (≈ 0.266 µM); MBC/MIC (E. coli DH-5987 [11]): 0.5; MBC (E. coli DH-5987 [11]): 0.0625 µg/mL (≈ 0.133 µM); Biofilm Eradication % (S. aureus biofilm): 72% and 72 ± 0.81%
CCOC(=O)c1ccc(N=Nc2c(N)nn3c(O)c(C#N)c(-c4ccc(N(C)C)cc4)nc23)cc1 [Compound 10a, Ethyl-4-((2-amino-6-cyano-5-(4-(dimethylamino)phenyl)-7-hydroxypyrazolo[1,5-a]pyrimidin-3-yl)diazenyl)benzoate]	29.1 mm	31.5 mm	29.8 mm	30.6 mm	30.7 mm	30.1 mm	0.187 ± 0.1 µg/mL (≈ 0.397 µM)	0.5	0.125 ± 0.2 µg/mL (≈ 0.266 µM)	0.5	0.187 ± 0.2 µg/mL (≈ 0.397 µM)	0.5	0.375 ± 0.4 µg/mL (≈ 0.797 µM)	0.5	0.125 µg/mL (≈ 0.266 µM)	0.187 ± 0.1 µg/mL (≈ 0.397 µM)	0.5	80% and > 80%	153 nM	144 nM	MIC (Mean ± SEM) (E. coli DH-5987 [11]): 0.125 ± 0.2 µg/mL (≈ 0.266 µM); MBC (E. coli DH-5987 [11]): 0.0625 µg/mL (≈ 0.133 µM)
